The text below walks through data of ChEMBL document CHEMBL1799935, “Identification of new inhibitors of protein kinase R guided by statistical modeling” (Bioorg Med Chem Lett, 2011).

Calls of active or inactive are those of the source. No cut-off for these calls is given here.

One data set deals with T1, Interferon-induced, double-stranded RNA-activated protein kinase (Homo sapiens, UniProt P19525). The data set can be described thus: Inhibition of human recombinant PKR autophosphorylation using poly[I:C] after 10 mins by luminescent assay.
T1 sequence (P19525 whole entry): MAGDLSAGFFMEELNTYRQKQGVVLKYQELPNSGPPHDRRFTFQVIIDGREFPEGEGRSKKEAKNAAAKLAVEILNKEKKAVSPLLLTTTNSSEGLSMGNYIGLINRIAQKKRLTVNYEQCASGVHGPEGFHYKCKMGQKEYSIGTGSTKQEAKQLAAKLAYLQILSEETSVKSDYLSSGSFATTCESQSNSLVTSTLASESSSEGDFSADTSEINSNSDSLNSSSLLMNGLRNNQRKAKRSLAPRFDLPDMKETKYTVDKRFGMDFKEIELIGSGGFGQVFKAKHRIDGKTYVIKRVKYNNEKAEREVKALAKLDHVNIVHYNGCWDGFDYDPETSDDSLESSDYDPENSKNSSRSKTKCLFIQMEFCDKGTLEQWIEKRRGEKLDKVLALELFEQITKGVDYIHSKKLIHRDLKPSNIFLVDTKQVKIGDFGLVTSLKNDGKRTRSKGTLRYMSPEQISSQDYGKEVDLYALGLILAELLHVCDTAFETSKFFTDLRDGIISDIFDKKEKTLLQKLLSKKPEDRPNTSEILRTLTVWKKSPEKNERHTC
Conditions: not given
In general, IC50 refers to the concentration needed to halve the response being measured. `Cc1[nH]c2ccc(Cl)cc2c1-c1ccnc(NC2CCCC2)n1`: the IC50 came out at 8 µM.
Still for that read-out and setting: next, `Cc1[nH]c2ccccc2c1-c1ccnc(Nc2cccc(Cl)c2)n1`: 0.3 µM; `COc1ccc2c(c1)/C(=N/NC(=O)c1cc(Br)ccc1O)C(=O)N2`: 9.4 µM; `C=C1NNC(=O)/C1=N\Nc1ccc(S(N)(=O)=O)cc1`: 11 µM.
The same measure, in the same setting: next, `Cc1[nH]c2ccc(Cl)cc2c1-c1ccnc(NCCN2CCOCC2)n1`: 12 µM; `COC(=O)c1ccc2c(-c3ccnc(SCCN(C)C)n3)c[nH]c2c1`: over 100 µM.
On the same count and under the same terms, with `Cc1[nH]c2ccccc2c1-c1ccnc(Nc2ccc(Cl)cc2)n1` the figure was 0.6 µM; with `COCCCNc1nccc(-c2c(C)[nH]c3ccc(Cl)cc23)n1`, 3 µM; with `Cc1[nH]c2ccc(Cl)cc2c1-c1ccnc(NCc2cccnc2)n1`, 48 µM.
As for `O=c1nncc(Nc2ccc3cn[nH]c3c2)[nH]1`, the IC50 was 13 µM.
On the same count and under the same terms, with `Cc1[nH]c2ccccc2c1-c1ccnc(Nc2cccnc2)n1` the figure was 0.1 µM.
On the same count and under the same terms, with `CCn1cnc2c(Nc3cccc(Cl)c3)nc(N[C@@H]3CCCC[C@@H]3N)nc21` the figure was 3 µM; with `N#C/C(=C1/Nc2ccccc2S1)c1ccnc(NCCc2cccnc2)n1`, under 0.1 µM.
With `Nc1nc(Nc2ccc(OC(F)(F)F)cc2)c2nc[nH]c2n1`, the IC50 is 20 µM.
Still for that read-out and setting: next, `c1ccc2c(CCNc3nccc(-c4c[nH]nc4-c4ccncc4)n3)c[nH]c2c1`: 51 µM; `Nc1nc(Nc2ccc(S(N)(=O)=O)cc2)nn1C(=S)Nc1c(F)cccc1F`: 1.6 µM; `Cc1[nH]c2ccccc2c1-c1ccnc(Nc2ccccc2Cl)n1`: 19 µM.
Same read-out and setting: next, `O=C1NC(=O)c2c1c1c3ccccc3[nH]c1c1[nH]c3cc(Br)ccc3c21`: 6 µM; `O=C1NC(=O)/C(=C/c2c[nH]c3ccc(Br)cc23)N1`: 4 µM.
The same measure, in the same setting: next, `C=C1NNC(=O)N=C1Nc1ccc2cn[nH]c2c1`: 16 µM.
Consider `O=C(Nc1cccc(Nc2nccc(Nc3cccc(C(F)(F)F)c3)n2)c1)C1CC1` [ANILINOPYRIMIDINE1], for which the IC50 is 20 µM.
As for `Cc1[nH]c2ccc(Cl)cc2c1-c1ccnc(N2CCCC2)n1`, the IC50 was over 100 µM.
As for `Fc1ccc(N2CCN(c3nccc(-c4c[nH]c5ccccc45)n3)CC2)cc1`, the IC50 is over 100 µM.
Regarding `CC(C)n1cnc2c(Nc3cccc(Cl)c3)nc(NCCO)nc21`, the IC50 was 16 µM.
On to `COc1ccc2[nH]c(C)c(-c3ccnc(Nc4ccc(Cl)cc4)n3)c2c1`, for which the IC50 amounted to 50 µM.
On the same count and under the same terms, with `COc1ccc2c(c1)/C(=C/c1cnc[nH]1)C(=O)N2` [SU-9516] the figure was 5 µM; with `COC(=O)c1ccc2c(-c3ccnc(NCCO)n3)c[nH]c2c1`, 9 µM; with `Cc1[nH]c2ccccc2c1-c1ccnc(NCCc2c[nH]c3ccccc23)n1`, 9 µM.
Take `Cn1nc2c3c(cccc31)C(=O)c1ccccc1-2`: the IC50 came out at 12 µM.
Take `Cc1[nH]c2ccccc2c1-c1ccnc(Nc2ccc(F)cc2)n1`: the IC50 is 0.15 µM.
As for `N#CCCc1ccc2c(c1)C1Nc3ccc([N+](=O)[O-])cc3C1CC(=O)N2` (configuration not stated), the IC50 was determined as 3.5 µM.
On to `O=C1NC(=O)c2c1c1c3ccccc3[nH]c1n1cncc21` [ISOGRANULATIMIDE], for which the IC50 is under 0.1 µM.
The same measure, in the same setting: with `COCCCNc1nccc(-c2c(C)[nH]c3ccccc23)n1` the figure was 1.5 µM; with `O=C1Nc2ccccc2/C1=C1/Nc2ccccc2/C1=N\OCCC(O)CO` (configuration not stated), under 0.1 µM.
The same measure, in the same setting: with `Cc1[nH]c2ccc(Cl)cc2c1-c1ccnc(Nc2ccc(N3CCN(C)CC3)cc2)n1` the figure was 0.1 µM; with `Cn1ncc2c(N3CCOCC3)nc(NCCc3c[nH]c4ccccc34)nc21` [TDR79432], 11 µM.
Same read-out and setting: next, `O=C1NCc2c1c1c3ccccc3n3c1c1c2c2ccccc2n1C1CCC3O1` (configuration not stated): 0.75 µM; `Nc1ncnc2[nH]nc(Nc3ccc(F)cc3)c12`: 5 µM; `COc1ccc2[nH]cc(-c3ccnc(NCCN4CCOCC4)n3)c2c1`: over 100 µM.
Consider `CN1CCN(c2ccc(Nc3ncnc4ccc([N+](=O)[O-])cc34)cc2)CC1`, for which the IC50 is 15 µM.
Turning to `Cc1[nH]c2ccccc2c1-c1ccnc(NCc2cccnc2)n1`, the IC50 was found to be 45 µM.
`Cc1[nH]c2ccccc2c1-c1ccnc(Nc2ccc(F)c(F)c2)n1`: the IC50 was determined as 1.5 µM.
Still for that read-out and setting: with `Nc1n[nH]c2nc3ccccc3nc12` [QUINOXALINE1] the figure was 6 µM; with `COc1ccc2c(c1)[nH]c1c(N3CCN(C(N)=O)CC3)ncnc12`, 13 µM; with `COC(=O)c1ccc2c(-c3ccnc(NCCN4CCOCC4)n3)c[nH]c2c1`, 18 µM.
On the same count and under the same terms, next, `N#Cc1cnc2cnc(NCc3cccnc3)cc2c1Nc1ccc(F)c(Cl)c1`: 0.25 µM.
Regarding `Cc1[nH]c2ccccc2c1-c1ccnc(N2CCN(c3ccc(F)cc3)CC2)n1`, the IC50 is over 100 µM.
In the case of `Cc1[nH]c2ccccc2c1-c1ccnc(N2CCOCC2)n1`, the IC50 worked out at 90 µM.
As to `Cc1[nH]c2ccccc2c1-c1ccnc(N2CCCC2)n1`, the IC50 is over 100 µM.
As to `OCCNc1nccc(-c2c[nH]c3ccccc23)n1`, the IC50 was 11 µM.
Still for that read-out and setting: with `FC(F)(F)c1nnc2ccc(NCCc3c[nH]c4ccccc34)nn12` the figure was 19 µM.
As for `c1cc(-c2cnn3cc(-c4ccc(OCCN5CCCCC5)cc4)cnc23)ccn1` [DORSOMORPHIN], the IC50 is 16 µM.
For `c1ccc(-c2[nH]c3ccccc3c2-c2ccnc(NC3CCCC3)n2)cc1`, the IC50 is over 100 µM.
For the compound `COC(=O)[C@]1(O)C[C@@H]2O[C@@]1(C)n1c3ccccc3c3c4c(c5c6ccccc6n2c5c31)C(=O)NC4` (single isomer, unassigned), the IC50 is under 0.1 µM.
Take `Cc1cc(Nc2nc(-c3ccccc3)nc3ccccc23)[nH]n1`: the IC50 turned out to be 15 µM.
As to `Cc1[nH]c2ccc(Cl)cc2c1-c1ccnc(Nc2cccc(Cl)c2)n1`, the IC50 turned out to be 2.5 µM.
The same measure, in the same setting: with `c1ccc(-c2[nH]c3ccccc3c2-c2ccnc(NCc3cccnc3)n2)cc1` the figure was over 100 µM; with `Nc1cccc(-c2cc3c(Oc4cccc(O)c4)ncnc3[nH]2)c1`, 4 µM; with `COc1ccc2[nH]c(C)c(-c3ccnc(NC4CCCC4)n3)c2c1`, 1.5 µM.
On the same count and under the same terms, with `O=C(O)c1ccc2c3c1cccc3c(=O)n1c3ccccc3nc21` the figure was under 0.1 µM.
Still for that read-out and setting: next, `NC(=O)Nc1sc(-c2ccc(F)cc2)cc1C(N)=O`: 0.25 µM; `COc1ccc(Nc2nccc(-c3c(C)[nH]c4ccc(OC)cc34)n2)cc1`: 55 µM.
`O=C1NC(=O)/C(=C/c2c[nH]c3ccccc23)N1`: the IC50 came out at 10.5 µM.
With `O=C1NC(=O)/C(=C\c2c[nH]c3ccccc23)N1`, the IC50 was determined as 11 µM.
Take `Nc1nc(Nc2ccc(S(N)(=O)=O)cc2)nn1C(=O)Nc1c(F)cccc1F`: the IC50 worked out at 8 µM.
Still for that read-out and setting: next, `NCc1ccc(C(=O)N/N=C2\C(=O)Nc3ccc(Br)cc32)cc1`: 12 µM; `Fc1ccc(Nc2nccc(-c3c(-c4ccccc4)[nH]c4ccccc34)n2)cc1`: 7 µM; `Oc1c2ccccc2c2c3c(cccc13)N=N2` [SP-600125]: 8 µM.
As for `Cc1[nH]c2ccccc2c1-c1ccnc(NCCO)n1`, the IC50 amounted to 11 µM.
Same read-out and setting: with `Cc1[nH]c2ccccc2c1-c1ccnc(NC(CO)C(C)C)n1` (configuration not stated) the figure was 50 µM.
On the same count and under the same terms, next, `Cc1[nH]c2ccc(Cl)cc2c1-c1ccnc(N2CCN(c3ccc(F)cc3)CC2)n1`: over 100 µM; `O=Nc1c(-c2c(O)[nH]c3ccccc23)[nH]c2ccccc12` [INDIRUBIN-3-MONOXIME]: under 0.1 µM; `O=C1Nc2cc(Br)ccc2/C1=C1/Nc2ccccc2/C1=N\O` [6BIO]: 0.6 µM.
Still for that read-out and setting: with `CSc1cccc(N/C=C2\C(=O)Nc3ccccc32)c1` the figure was 2.5 µM; with `CCN(CC)C(=O)c1ccc(Nc2nc(OCC3CCCCC3)c3nc[nH]c3n2)cc1`, 2 µM.
For the compound `O=C(O)/C=C/c1cc(Br)c(Br)c(Br)c1Br`, the IC50 is 7 µM.
As to `CN1C(=O)NC(=O)/C(=C\c2c[nH]c3ccc(O)cc23)C1=O`, the IC50 worked out at 3 µM.
For `O=C1Cc2ccc(Oc3ccc4c(c3)NC(=O)C4)cc2N1`, the IC50 came to 14 µM.
In the case of `c1ccc(-c2[nH]c3ccccc3c2-c2ccnc(NCCN3CCOCC3)n2)cc1`, the IC50 is 12 µM.
Still for that read-out and setting: with `Cc1[nH]c2ccccc2c1-c1ccnc(N2CCN(c3ccccn3)CC2)n1` the figure was over 100 µM.

The test system of the next data set is Vero. The data set can be described thus: Cytotoxicity against african green monkey Vero cells assessed as cell survival at up to 100 uM after 48 hrs by MTS assay. It is filed as cell-based. To be noted: chlorocebus sabaeus. (In general: Tetrazolium assays rely on reduction of a dye to a coloured formazan, in cell work by metabolically active cells.)
Regarding `Cc1[nH]c2ccccc2c1-c1ccnc(NCCc2c[nH]c3ccccc23)n1`, the Activity entry is reported as “Non-toxic”.

Test system in another data set: not listed separately
The data set can be described thus: Cytotoxicity against mouse bone marrow macrophages assessed as cell survival at up to 100 uM after 48 hrs by MTS assay. To be noted: macrophage. It is filed as cell-based.
Consider `Cc1[nH]c2ccccc2c1-c1ccnc(NCCc2c[nH]c3ccccc23)n1`, for which the Activity entry is given as “Non-toxic”.

Test system in a further data set: not listed separately
The data set is described as follows: Cytotoxicity against mouse bone marrow macrophages assessed as cell survival at 30 uM after 24 hrs by photomicroscopy analysis. The format is cell-based. Particulars: macrophage.
In the case of `Cc1[nH]c2ccccc2c1-c1ccnc(NCCc2c[nH]c3ccccc23)n1`, the Activity entry is “Non-toxic”.

Another data set has as its target T1, Interferon-induced, double-stranded RNA-activated protein kinase. The data set is described as follows: Competitive inhibition of human recombinant PKR.
Conditions: not given
In general, Ki refers to the dissociation constant of the complex between target and ligand, obtained from inhibition or displacement. With `Cc1[nH]c2ccccc2c1-c1ccnc(NCCc2c[nH]c3ccccc23)n1`, the Ki is 3.4 µM.

A further data set has as its target T2, Interferon-induced, double-stranded RNA-activated protein kinase (Mus musculus) (UniProt Q03963).
T2 sequence (whole entry): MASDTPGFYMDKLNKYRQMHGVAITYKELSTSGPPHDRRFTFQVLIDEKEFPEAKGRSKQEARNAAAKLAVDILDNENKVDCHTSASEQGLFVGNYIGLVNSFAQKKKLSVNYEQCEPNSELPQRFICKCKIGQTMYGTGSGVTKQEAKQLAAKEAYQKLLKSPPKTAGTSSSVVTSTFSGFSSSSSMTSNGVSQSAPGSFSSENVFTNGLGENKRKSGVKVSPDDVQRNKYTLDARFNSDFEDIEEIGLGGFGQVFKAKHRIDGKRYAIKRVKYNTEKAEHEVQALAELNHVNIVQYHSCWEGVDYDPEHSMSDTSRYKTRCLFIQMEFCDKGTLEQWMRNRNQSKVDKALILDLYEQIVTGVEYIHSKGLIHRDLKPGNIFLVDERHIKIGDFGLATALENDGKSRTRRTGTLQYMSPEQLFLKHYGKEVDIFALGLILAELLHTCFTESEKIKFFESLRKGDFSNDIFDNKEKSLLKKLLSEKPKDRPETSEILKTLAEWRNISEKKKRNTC
The data set is described as follows: Inhibition of poly[I:C]-induced PKR autophosphorylation mouse bone marrow macrophages treated immediately before addition of poly[I:C] by Western blotting.
Conditions: not given
A general note: A western blot detects proteins with antibodies after separation by electrophoresis.
Consider `Cc1[nH]c2ccccc2c1-c1ccnc(NCCc2c[nH]c3ccccc23)n1`, for which the inhibition result is “Dose-dependent effect”.

The target of a further data set is T2, Interferon-induced, double-stranded RNA-activated protein kinase (Mus musculus). The data set can be described thus: Inhibition of poly[I:C]-induced PKR autophosphorylation mouse bone marrow macrophages at 40 uM treated immediately before addition of poly[I:C] by Western blotting.
Conditions: not given
For `c1ccc(-c2[nH]c3ccccc3c2-c2ccnc(NC3CCCC3)n2)cc1`, the inhibition entry was “inactive”.
On the same count and under the same terms, next, `c1ccc(-c2[nH]c3ccccc3c2-c2ccnc(NCc3cccnc3)n2)cc1`: “inactive”.
